Measured values: ChEMBL document CHEMBL1671792, “Conformationally constrained farnesoid X receptor (FXR) agonists: heteroaryl replacements of the naphthalene” (Bioorg Med Chem Lett, 2011)
pEC50, pIC50: −log10 of the molar value.

Legend:
Homo sapiens [1] = species: Homo sapiens; assay: Selectivity ratio of EC50 for human FXR to EC50 for human RXRalpha
Bile acid receptor = molecular target: T1, Bile acid receptor (Homo sapiens, UniProt Q96RI1); assay: Agonist activity at human FXR LBD assessed as SRC1 peptide recruitment by FRET assay; format: functional
T1 sequence (Q96RI1 whole entry): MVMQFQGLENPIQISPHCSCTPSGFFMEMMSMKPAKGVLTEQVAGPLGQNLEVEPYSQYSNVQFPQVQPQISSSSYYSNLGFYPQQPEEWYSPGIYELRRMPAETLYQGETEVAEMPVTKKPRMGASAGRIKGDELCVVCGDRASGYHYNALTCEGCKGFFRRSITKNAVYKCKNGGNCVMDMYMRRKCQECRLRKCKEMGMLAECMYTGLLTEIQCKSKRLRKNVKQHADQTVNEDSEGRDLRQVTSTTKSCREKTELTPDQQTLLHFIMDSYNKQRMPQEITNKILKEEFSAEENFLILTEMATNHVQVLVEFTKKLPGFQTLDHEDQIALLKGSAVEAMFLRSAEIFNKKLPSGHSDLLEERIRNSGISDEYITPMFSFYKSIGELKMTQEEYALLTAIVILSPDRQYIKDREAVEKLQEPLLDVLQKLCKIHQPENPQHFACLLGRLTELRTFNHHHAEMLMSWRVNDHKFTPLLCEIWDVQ

Mus musculus [2] = assay: Antidiabetic activity in diet-induced obese mouse assessed as change in body weight at 100 mg/kg, po for 4 weeks measured after 4 weeks (reference value: 29.1+/-0.8 g); format: functional
Mus musculus [3] = assay: Antidiabetic activity in diet-induced obese mouse assessed as serum insulin level at 100 mg/kg, po for 4 weeks (reference value: […]); format: functional
Homo sapiens [4] = species: Homo sapiens; assay: Selectivity ratio of EC50 for human FXR to EC50 for human LXRbeta
[5] = Oral bioavailability in mouse; format: ADME, organism-based; settings: in vivo
[6] = Oral bioavailability in cynomolgus monkey; format: ADME, organism-based, Macaca fascicularis; settings: in vivo
Mus musculus [7] = assay: Antidiabetic activity in diet-induced obese mouse assessed as change in body weight at 100 mg/kg, po for 4 weeks measured after 1 week (reference value: 29.1+/-0.8 g); format: functional
Mus musculus [8] = assay: Antidiabetic activity in diet-induced obese mouse assessed as total cholesterol level at 30 mg/kg, po for 4 weeks (reference value: 140.0 +/-2.8 mg/dL); format: functional
Mus musculus [9] = assay: Antidiabetic activity in diet-induced obese mouse assessed as glycerol level at 10 mg/kg, po for 4 weeks (reference value: 11.0 +/-1.3 mg/dL); format: functional
[10] = Half life in iv dosed Beagle dog; format: ADME, organism-based, Canis lupus familiaris; settings: in vivo
Homo sapiens [11] = species: Homo sapiens; assay: Selectivity ratio of EC50 for human FXR to EC50 for human PPARdelta
Mus musculus [12] = assay: Antidiabetic activity in diet-induced obese mouse assessed as change in body weight at 10 mg/kg, po for 4 weeks measured after 3 weeks (reference value: 30.3+/-0.8 g); format: functional
Mus musculus [13] = assay: Antidiabetic activity in diet-induced obese mouse assessed as beta-hydroxybutyrate level at 10 mg/kg, po for 4 weeks (reference value: 1.7 +/-0.1 mg/dL); format: functional
Mus musculus [14] = assay: Antidiabetic activity in diet-induced obese mouse assessed as triglyceride level at 100 mg/kg, po for 4 weeks (reference value: 54.4 +/-1.5 mg/dL); format: functional
Homo sapiens [15] = species: Homo sapiens; assay: Selectivity ratio of EC50 for human FXR to EC50 for human LXRalpha
Homo sapiens [16] = species: Homo sapiens; assay: Selectivity ratio of EC50 for human FXR to EC50 for human LRH
Homo sapiens [17] = species: Homo sapiens; assay: Selectivity ratio of EC50 for human FXR to EC50 for human PXR
Mus musculus [18] = assay: Antidiabetic activity in diet-induced obese mouse assessed as change in body weight at 30 mg/kg, po for 4 weeks measured after 2 weeks (reference value: 29.6+/-0.9 g); format: functional
Cytochrome P450 1A2 = molecular target: T2, Cytochrome P450 1A2 (Homo sapiens, UniProt P05177); assay: Inhibition of CYP1A2 in human liver microsome; format: microsomes
T2 sequence (P05177 whole entry): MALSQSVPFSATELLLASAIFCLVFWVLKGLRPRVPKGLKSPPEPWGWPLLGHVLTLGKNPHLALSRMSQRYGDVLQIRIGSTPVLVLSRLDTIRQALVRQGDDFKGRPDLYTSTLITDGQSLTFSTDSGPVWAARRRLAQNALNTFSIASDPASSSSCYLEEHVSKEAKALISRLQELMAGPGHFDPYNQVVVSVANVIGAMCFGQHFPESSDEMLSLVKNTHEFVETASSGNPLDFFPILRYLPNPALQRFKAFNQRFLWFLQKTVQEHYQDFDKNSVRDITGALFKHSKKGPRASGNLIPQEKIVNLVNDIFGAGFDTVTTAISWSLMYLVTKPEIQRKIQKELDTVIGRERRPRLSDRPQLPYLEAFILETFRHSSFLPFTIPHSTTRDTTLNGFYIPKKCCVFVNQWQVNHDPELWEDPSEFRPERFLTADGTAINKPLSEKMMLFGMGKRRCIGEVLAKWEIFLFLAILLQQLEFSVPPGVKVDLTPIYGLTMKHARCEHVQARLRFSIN

Mus musculus [19] = assay: Antidiabetic activity in diet-induced obese mouse assessed as total cholesterol level at 10 mg/kg, po for 4 weeks (reference value: 140.0 +/-2.8 mg/dL); format: functional
Mus musculus [20] = assay: Antidiabetic activity in diet-induced obese mouse assessed as change in body weight at 30 mg/kg, po for 4 weeks measured after 3 weeks (reference value: 29.6+/-0.9 g); format: functional
Mus musculus [21] = assay: Antidiabetic activity in diet-induced obese mouse assessed as change in body weight at 30 mg/kg, po for 4 weeks measured after 1 week (reference value: 29.6+/-0.9 g); format: functional
Mus musculus [22] = assay: Antidiabetic activity in diet-induced obese mouse assessed as change in body weight at 30 mg/kg, po for 4 weeks measured after 4 weeks (reference value: 29.6+/-0.9 g); format: functional
Mus musculus [23] = assay: Antidiabetic activity in diet-induced obese mouse assessed as triglyceride level at 30 mg/kg, po for 4 weeks (reference value: 54.4 +/-1.5 mg/dL); format: functional
Mus musculus [24] = assay: Antidiabetic activity in diet-induced obese mouse assessed as change in body weight at 10 mg/kg, po for 4 weeks measured after 1 week (reference value: 30.3+/-0.8 g); format: functional
Cynomolgus monkey = assay: Dose normalized AUC in orally dosed cynomolgus monkey; format: ADME, organism-based, Macaca fascicularis; settings: in vivo, po

Molecule `CC(C)c1onc(-c2c(Cl)cccc2Cl)c1COc1ccc(-c2ccc3nc(C(=O)O)ccc3c2)cc1` has a Ratio EC50 (Homo sapiens [1]) of 100, a pEC50 (Bile acid receptor) of 6.92 and an Activity (Mus musculus [2]) of 25.6 g. The Activity (Mus musculus [3]) was 0.34 ng/mL, the Ratio EC50 (Homo sapiens [4]) was 100 and the bioavailability [5] was 42%. The bioavailability [6] was 15%, the Activity (Mus musculus [7]) was 25.6 g and the Activity (Mus musculus [8]) was 99.6 mg/dL. The Activity (Mus musculus [9]) was 10.8 mg/dL, the half-life [10] was 1.83 h and the Ratio EC50 (Homo sapiens [11]) was 100. It also gave an Activity (Mus musculus [12]) of 29 g, an Activity (Mus musculus [13]) of 1.7 mg/dL and an Activity (Mus musculus [14]) of 47.4 mg/dL. The Ratio EC50 (Homo sapiens [15]) was 100, the Ratio EC50 (Homo sapiens [16]) was 100 and the Ratio EC50 (Homo sapiens [17]) was 100. For the same molecule, the Activity (Mus musculus [18]) was 27.8 g, the pIC50 (Cytochrome P450 1A2) was 4.68 and the Activity (Mus musculus [19]) was 108.5 mg/dL. It also gave an Activity (Mus musculus [20]) of 27.5 g, an Activity (Mus musculus [21]) of 28.4 g and an Activity (Mus musculus [22]) of 27.3 g. It also gave an Activity (Mus musculus [23]) of 51.1 mg/dL, an Activity (Mus musculus [24]) of 29.4 g and an AUC (Cynomolgus monkey) of 850 ng·kg·h/mg/mL.
